Data on 2 compounds can be found in ChEMBL document CHEMBL1201862, “PubChem BioAssay data set” (2004).

In general, AC50 refers to the midpoint of the concentration-response curve, whichever way the signal moves. The EC50 is the concentration giving half of the maximal effect. A word on the CC50: it is the concentration giving 50% cytotoxicity.

One assay deals with A-375. Kind of assay: proliferation inhibition in MITF-low A375 cells – cell-based, cherry-pick samples, set 2, counter-screen for MITF modulator project, dose response (AID 540335). It counts as functional. The settings on record: Homo sapiens. (In general: Counterscreens check selectivity or assay interference.)
For another assay, the system named is INS1. Kind of assay: INS-1E survival protection against cytokine death – cell-based, luminescence, retest, dose response (AID 449756).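 Also: cell death triggered by IL-1 beta plus TNF-alpha plus IFN-gamma mixture; protective hits raise ATP signal compared with cytokine alone wells.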 The format is functional. The settings on record: Rattus norvegicus.
The nature of assay [1]: mitochondrial function rescue without frataxin homolog – Friedreich's ataxia, plus single-dose screen, dose response (AID 1465).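 Also: yeast depleted of Yfh1p frataxin homolog grown on glycerol needing respiration; WST-1 tetrazolium dye reduction as measure of cellular dehydrogenase metabolic activity.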 It counts as functional.
The target of assay [2] is T1, Microphthalmia-associated transcription factor (Homo sapiens, UniProt O75030).
T1 sequence (O75030 whole entry): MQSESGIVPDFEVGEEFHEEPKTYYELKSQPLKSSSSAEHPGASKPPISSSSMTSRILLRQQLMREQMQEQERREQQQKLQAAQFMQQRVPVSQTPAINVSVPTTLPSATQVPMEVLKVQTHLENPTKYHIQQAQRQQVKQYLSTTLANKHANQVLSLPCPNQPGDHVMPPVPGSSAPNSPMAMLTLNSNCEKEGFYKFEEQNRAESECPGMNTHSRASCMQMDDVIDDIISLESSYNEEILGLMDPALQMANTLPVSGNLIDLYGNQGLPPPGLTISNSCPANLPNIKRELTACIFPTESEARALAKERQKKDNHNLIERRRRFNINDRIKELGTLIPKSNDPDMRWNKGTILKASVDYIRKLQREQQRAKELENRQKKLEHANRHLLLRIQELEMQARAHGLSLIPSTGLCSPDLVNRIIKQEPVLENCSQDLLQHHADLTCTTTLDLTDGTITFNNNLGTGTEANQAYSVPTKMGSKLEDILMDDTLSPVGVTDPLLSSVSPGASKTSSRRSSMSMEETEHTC
Kind of assay: reducers of TRPM1 reporter luminescence, concentration series – cell-based, SK-MEL-5, cherry-picked, set 3, MITF inhibitor project, dose response (AID 493073).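 Also: SK-MEL-5 melanoma cells with luciferase driven by the MITF target TRPM1 promoter.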 It counts as functional.

For assay [3], the target named is T2, Polyadenylate-binding protein 1 (Homo sapiens, UniProt P11940). Kind of assay: MLLE binding blockers, Cy5 peptide tracer – biochemical, fluorescence polarization, Cy5-PAM2 peptide, secondary, miRNA deadenylation inhibitor project, dose response (AID 602260). The format is functional. The settings on record: read-out: IC50_Mean.
Another assay deals with T3, Protein RecA (Mycobacterium tuberculosis, UniProt P9WHJ3).
T3 sequence (P9WHJ3 whole entry): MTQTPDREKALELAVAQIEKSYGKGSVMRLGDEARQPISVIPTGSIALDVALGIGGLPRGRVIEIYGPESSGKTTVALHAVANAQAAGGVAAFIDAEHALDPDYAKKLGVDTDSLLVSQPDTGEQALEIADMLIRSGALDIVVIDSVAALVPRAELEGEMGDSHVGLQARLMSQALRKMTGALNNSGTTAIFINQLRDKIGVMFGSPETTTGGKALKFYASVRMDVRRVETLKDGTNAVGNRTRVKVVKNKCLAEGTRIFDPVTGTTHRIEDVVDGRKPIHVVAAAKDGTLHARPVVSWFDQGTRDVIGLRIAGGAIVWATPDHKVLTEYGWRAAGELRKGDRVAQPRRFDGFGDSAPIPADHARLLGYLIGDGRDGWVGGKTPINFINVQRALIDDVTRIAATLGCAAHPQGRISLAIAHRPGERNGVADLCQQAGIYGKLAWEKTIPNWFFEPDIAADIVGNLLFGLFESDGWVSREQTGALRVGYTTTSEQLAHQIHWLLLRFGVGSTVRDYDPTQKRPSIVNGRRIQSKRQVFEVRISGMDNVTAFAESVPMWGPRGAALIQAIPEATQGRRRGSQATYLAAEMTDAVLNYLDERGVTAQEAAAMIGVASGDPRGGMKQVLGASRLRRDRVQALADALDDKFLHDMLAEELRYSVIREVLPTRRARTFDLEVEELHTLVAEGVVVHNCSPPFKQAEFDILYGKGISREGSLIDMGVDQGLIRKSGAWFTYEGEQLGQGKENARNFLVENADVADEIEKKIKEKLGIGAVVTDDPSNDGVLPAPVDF
Kind of assay: Fluorescence Cell-Free Homogeneous Dose Retest to Identify Inhibitors of RecA-Intein Splicing Activity. [Related pubchem assays (depositor defined):AID2097, AID2223, AID489010, AID492950]. The format is functional.

Another assay relates to Vero. Kind of assay: viability of Vero cells under compound – cytotoxicity control for flavivirus capping enzyme inhibitors (AID 588742). It counts as functional. The settings on record: Chlorocebus sabaeus.
Assay [4] deals with FAD-linked sulfhydryl oxidase ALR (Homo sapiens, UniProt P55789). Kind of assay: ALR-catalysed DTT oxidation blockers – biochemical, H2O2 detection, luminescence, cherry-pick, dose response (AID 493248).
The target in the next assay is Hexokinase HKDC1 (Homo sapiens, UniProt Q2TB90). Kind of assay: inhibition of HKDC1 glucose phosphorylation – biochemical, W721R variant, dose response (AID 504729). The format is functional.
Assay [5] deals with T4, Replicative DNA helicase DnaB (Mycobacterium tuberculosis, UniProt P9WMR3).
T4 sequence (P9WMR3 whole entry): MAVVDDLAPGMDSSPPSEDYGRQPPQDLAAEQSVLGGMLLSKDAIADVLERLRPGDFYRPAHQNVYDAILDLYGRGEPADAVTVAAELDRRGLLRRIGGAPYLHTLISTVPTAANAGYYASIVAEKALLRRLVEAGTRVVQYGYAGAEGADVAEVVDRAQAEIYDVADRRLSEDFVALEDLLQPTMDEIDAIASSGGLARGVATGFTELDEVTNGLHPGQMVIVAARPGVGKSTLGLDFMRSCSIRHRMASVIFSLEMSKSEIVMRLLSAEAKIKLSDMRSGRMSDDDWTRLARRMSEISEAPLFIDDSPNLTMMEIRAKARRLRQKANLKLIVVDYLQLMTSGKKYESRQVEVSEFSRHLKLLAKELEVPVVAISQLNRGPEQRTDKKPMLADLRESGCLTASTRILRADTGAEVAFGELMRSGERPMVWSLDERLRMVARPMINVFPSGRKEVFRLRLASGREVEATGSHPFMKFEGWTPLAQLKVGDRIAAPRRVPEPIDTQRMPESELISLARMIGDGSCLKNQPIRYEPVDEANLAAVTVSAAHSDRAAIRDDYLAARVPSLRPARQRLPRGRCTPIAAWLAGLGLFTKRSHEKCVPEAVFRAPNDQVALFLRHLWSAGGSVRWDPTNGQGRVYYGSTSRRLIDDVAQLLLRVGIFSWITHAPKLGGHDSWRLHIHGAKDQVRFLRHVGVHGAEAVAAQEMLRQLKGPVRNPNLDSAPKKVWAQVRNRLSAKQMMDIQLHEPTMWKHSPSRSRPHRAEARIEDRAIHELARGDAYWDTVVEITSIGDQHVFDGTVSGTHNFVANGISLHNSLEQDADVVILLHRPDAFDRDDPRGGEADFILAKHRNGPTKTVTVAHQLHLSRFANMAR
Kind of assay: DnaB intein splicing inhibitors, dose response, biochemical, cell-free fluorescence (AID 449749). The format is functional.

Assay [6] deals with T2, Polyadenylate-binding protein 1. Kind of assay: MLLE domain peptide-binding blockers, IC50 – biochemical, fluorescence polarization, FITC-PAM2 peptide, dose response (AID 602259). It counts as functional. The settings on record: read-out: IC50_Mean.
Assay [7] shares this target. Kind of assay: blockers of PABP interaction with poly(A) – biochemical, fluorescence polarization, […] (AID 2014). On the technique in general: In fluorescence polarisation assays a small probe gives low polarisation when free and higher when bound to something large.
The target in another assay is Protein S100-A4 (Homo sapiens, UniProt P26447). Kind of assay: human S100A4 peptide interaction inhibition curves – biochemical, fluorescence polarization, cherry-picked hits, dose response (AID 687001). It counts as functional.
Assay [8] concerns the target Eukaryotic translation initiation factor 4H (Homo sapiens, UniProt Q15056). Kind of assay: eIF4H binding inhibition – biochemical, uHTS, fluorescence polarization, translation initiation inhibitor project, primary screen (AID 2012).

Each structure is given as a SMILES string. The source made the active and inactive calls.

T2 sequence (P11940 whole entry): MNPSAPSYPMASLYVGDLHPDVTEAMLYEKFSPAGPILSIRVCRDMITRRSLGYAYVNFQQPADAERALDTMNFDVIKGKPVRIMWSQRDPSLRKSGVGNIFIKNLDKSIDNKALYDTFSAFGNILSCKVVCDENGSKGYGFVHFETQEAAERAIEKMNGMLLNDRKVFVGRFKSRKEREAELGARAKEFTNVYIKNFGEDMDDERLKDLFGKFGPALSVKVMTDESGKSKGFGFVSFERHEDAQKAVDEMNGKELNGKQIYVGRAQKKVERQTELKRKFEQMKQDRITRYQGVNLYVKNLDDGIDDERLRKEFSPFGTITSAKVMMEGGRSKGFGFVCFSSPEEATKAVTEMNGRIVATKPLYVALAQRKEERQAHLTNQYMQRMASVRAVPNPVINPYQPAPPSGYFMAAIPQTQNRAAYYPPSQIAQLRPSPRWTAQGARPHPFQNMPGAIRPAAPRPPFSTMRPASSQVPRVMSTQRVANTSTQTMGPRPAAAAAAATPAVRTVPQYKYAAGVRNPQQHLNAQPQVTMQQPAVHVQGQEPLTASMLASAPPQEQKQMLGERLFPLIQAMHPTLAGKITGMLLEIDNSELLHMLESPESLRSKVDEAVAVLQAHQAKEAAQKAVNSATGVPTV
Chain of FAD-linked sulfhydryl oxidase ALR (P55789 whole entry): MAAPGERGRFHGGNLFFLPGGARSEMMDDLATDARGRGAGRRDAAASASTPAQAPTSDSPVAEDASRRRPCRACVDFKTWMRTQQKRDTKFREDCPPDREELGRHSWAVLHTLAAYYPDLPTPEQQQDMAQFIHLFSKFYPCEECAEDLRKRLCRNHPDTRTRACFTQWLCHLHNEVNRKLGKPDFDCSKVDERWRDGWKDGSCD
Chain of Protein S100-A4 (P26447 whole entry): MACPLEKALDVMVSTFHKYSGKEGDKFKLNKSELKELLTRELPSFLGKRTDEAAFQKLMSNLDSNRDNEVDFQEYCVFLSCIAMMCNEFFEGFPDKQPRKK
Chain of Hexokinase HKDC1 (Q2TB90 whole entry): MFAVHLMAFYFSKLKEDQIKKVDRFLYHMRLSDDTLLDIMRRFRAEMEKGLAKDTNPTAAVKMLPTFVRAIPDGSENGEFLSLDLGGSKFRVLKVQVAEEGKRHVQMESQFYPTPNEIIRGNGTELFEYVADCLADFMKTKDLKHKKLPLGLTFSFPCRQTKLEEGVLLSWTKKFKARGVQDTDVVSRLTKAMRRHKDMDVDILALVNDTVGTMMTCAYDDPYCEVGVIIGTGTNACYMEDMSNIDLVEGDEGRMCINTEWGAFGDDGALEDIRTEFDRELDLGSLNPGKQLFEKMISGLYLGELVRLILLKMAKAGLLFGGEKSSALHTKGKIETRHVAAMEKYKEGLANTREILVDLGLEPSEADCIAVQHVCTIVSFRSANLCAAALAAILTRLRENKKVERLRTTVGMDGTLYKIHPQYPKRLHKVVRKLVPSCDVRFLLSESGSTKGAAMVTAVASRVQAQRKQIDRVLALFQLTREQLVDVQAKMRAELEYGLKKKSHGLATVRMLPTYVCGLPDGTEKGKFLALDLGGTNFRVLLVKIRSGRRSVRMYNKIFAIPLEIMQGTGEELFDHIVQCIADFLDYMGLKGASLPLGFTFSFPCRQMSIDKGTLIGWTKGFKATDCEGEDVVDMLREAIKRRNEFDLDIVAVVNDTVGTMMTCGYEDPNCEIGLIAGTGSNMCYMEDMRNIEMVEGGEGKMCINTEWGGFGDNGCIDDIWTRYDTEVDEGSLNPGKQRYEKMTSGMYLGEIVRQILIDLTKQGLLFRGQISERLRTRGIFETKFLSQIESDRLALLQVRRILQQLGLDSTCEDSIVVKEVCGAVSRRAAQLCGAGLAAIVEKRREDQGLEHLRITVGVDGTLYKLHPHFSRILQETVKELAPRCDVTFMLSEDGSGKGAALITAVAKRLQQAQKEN

Consider `COc1ccc(S(=O)(=O)Nc2ccc(O)c3ccccc23)cc1`, for which the half-maximal activity concentration (AC50) with A-375 is 33.1 µM (active); with INS1, 4.67 µM (active); in assay [2], 9.07 µM (active); in assay [4], 18.4 µM (active); in assay [5], 0.0824 µM (active). In addition, the EC50 in assay [1] was > 100 µM (active); at Protein RecA it was 0.0478 µM (active). Further, the IC50 is > 66 µM (inactive) in assay [3], 21 µM (inactive) at Hexokinase HKDC1 and > 66 µM (inactive) in assay [6]. Further, in the assay with Vero, the CC50 is > 40 µM (active).
Take `Cc1cc2cc(CNC(=O)Nc3ccc(Cl)c(Cl)c3)ccc2n1C`: the IC50 in assay [7] was 4.53 µM (active); in assay [8], 5.7 µM (active). Moreover, the concentration at half-maximal activity (AC50) on Protein S100-A4 is 1.74 µM (active).
